Reference: ChEMBL document CHEMBL1201862, “PubChem BioAssay data set” (2004)
Several values for one entry are separate records, joined by “and”; a condition that tells them apart may be missing. Equal values may be shown once.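 A five-concentration, 48-hour dose response in 96-well plates underlies each endpoint, interpolated linearly between surrounding concentrations. At the GI50, growth is halved.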 Activity calls are given as the source filed them. Rule as the data show it: active = GI50 up to about 1.1 µM and inactive = higher.

Columns and labels:
Assay in all cases: DTP human tumour cell line panel, 48 h
[1] = system: CCRF-CEM
[2] = system: DU-145
[3] = system: HOP-62
[4] = system: Hs-578T
[5] = system: K562
[6] = system: MDA-N
[7] = system: Malme-3M
[8] = system: NCI-H460
[9] = system: NCI-H522
[10] = system: OVCAR-4
[11] = system: OVCAR-5
[12] = system: RPMI-8226
[13] = system: SF-539
[14] = system: SK-MEL-5
[15] = system: SK-OV-3
[16] = system: SR
[17] = system: TK-10
[18] = system: U-251
[19] = system: UACC-62
[20] = system: LOX IMVI

Row | SMILES | GI50 [1] | GI50 [2] | GI50 [3] | GI50 [4] | GI50 [5] | GI50 [6] | GI50 [7] | GI50 [8] | GI50 [9] | GI50 [10] | GI50 [11] | GI50 [12] | GI50 [13] | GI50 [14] | GI50 [15] | GI50 [16] | GI50 [17] | GI50 [18] | GI50 [19] | GI50 [20]
1 | CC(=O)c1cccc(NC2C(N)C(NC(=O)N(C)C)(C(C)O)C(C)(O)C2(O)COC(=O)c2c(C)cccc2O)c1 (configuration not stated) | < 0.001 µM (active) | < 0.001 µM (active) | < 0.001 µM (active) | < 0.001 µM (active) | < 0.001 µM (active) | < 0.001 µM (active) | < 0.001 µM (active) | < 0.001 µM (active) | 0.01 µM (active) | < 0.001 µM (active) | < 0.001 µM (active) | < 0.001 µM (active) | < 0.001 µM (active) | < 0.001 µM (active) | < 0.001 µM (active) | < 0.001 µM (active) | < 0.001 µM (active) | < 0.001 µM (active) | 0.01 µM (active) | –
2 | COc1ccc(/C=C2/N/C(=N\N=C/C(O)C(O)C(O)CO)NC2=O)cc1 (configuration not stated) | 63 µM (inactive) and 53 µM (inactive) | > 100 µM (inactive) and 71.3 µM (inactive) | – | 78.2 µM (inactive) | – | 72.6 µM (inactive) | > 100 µM (inactive) | > 100 µM (inactive) | – | – | > 100 µM (inactive) | > 100 µM (inactive) | 18 µM (inactive) | – | 73.6 µM (inactive) | > 100 µM (inactive) | > 100 µM (inactive) | > 100 µM (inactive) and 84.7 µM (inactive) | – | > 100 µM (inactive)
3 | CC(C)(C)OC(=O)NC(Cc1ccc(O)cn1)C(=O)O (configuration not stated) | > 10 µM (inactive) | > 100 µM (inactive) | > 100 µM (inactive) | > 100 µM (inactive) | > 100 µM (inactive) | > 100 µM (inactive) | > 100 µM (inactive) | > 100 µM (inactive) | > 100 µM (inactive) | > 100 µM (inactive) | > 100 µM (inactive) | > 100 µM (inactive) | > 100 µM (inactive) | > 100 µM (inactive) | – | > 100 µM (inactive) | > 100 µM (inactive) | > 100 µM (inactive) | – | > 100 µM (inactive)
4 | C[C@@]12C=CC3C/C(=N\C(N)=S)C=C(CCCC4OCCO4)[C@]3(CC1)C2 (some centres not stated) | – | 21 µM (inactive) | 29.5 µM (inactive) | 28.5 µM (inactive) | 17.9 µM (inactive) | 16 µM (inactive) | 18.4 µM (inactive) | 15.6 µM (inactive) | 6.87 µM (inactive) | 18.4 µM (inactive) | 15.7 µM (inactive) | 16.2 µM (inactive) | 17.9 µM (inactive) | 12.4 µM (inactive) | 49.2 µM (inactive) | 15.1 µM (inactive) | 20.6 µM (inactive) | 20.5 µM (inactive) | 16.2 µM (inactive) | 17.4 µM (inactive)
5 | Clc1ccccc1NN(Cc1ccccn1)c1ccccc1Cl | – | 35.5 µM (inactive) | 17.9 µM (inactive) | 26.2 µM (inactive) | 17.3 µM (inactive) | 17.2 µM (inactive) | 19 µM (inactive) | – | 17.6 µM (inactive) | 16.2 µM (inactive) | 20.9 µM (inactive) | 16.1 µM (inactive) | 18.7 µM (inactive) | 14.5 µM (inactive) | 49.8 µM (inactive) | 13.4 µM (inactive) | – | 15.8 µM (inactive) | 16.7 µM (inactive) | 18.6 µM (inactive)
6 | O=c1oc2ccc(Cl)cc2c2ccccc12 | > 100 µM (inactive) | > 100 µM (inactive) | 18.8 µM (inactive) | 18.3 µM (inactive) | > 100 µM (inactive) | > 100 µM (inactive) | > 100 µM (inactive) | > 100 µM (inactive) | 48.5 µM (inactive) | > 100 µM (inactive) | 78.3 µM (inactive) | > 100 µM (inactive) | > 100 µM (inactive) | 67.6 µM (inactive) | – | > 100 µM (inactive) | 51.6 µM (inactive) | 15.1 µM (inactive) | 71.6 µM (inactive) | > 100 µM (inactive)
7 | NCCCN1CCN(c2ccccc2)CC1 | – | > 100 µM (inactive) | 10.9 µM (inactive) | > 100 µM (inactive) | > 100 µM (inactive) | > 100 µM (inactive) | > 100 µM (inactive) | > 100 µM (inactive) | 73.6 µM (inactive) | > 100 µM (inactive) | > 100 µM (inactive) | > 100 µM (inactive) | – | > 100 µM (inactive) | – | 34.3 µM (inactive) | > 100 µM (inactive) | > 100 µM (inactive) | 70 µM (inactive) | > 100 µM (inactive)
8 | CCOP(=O)(OCC)C(F)(F)CC1CCCCC1 | > 10 µM (inactive) | > 10 µM (inactive) | > 10 µM (inactive) | > 10 µM (inactive) | > 10 µM (inactive) | > 10 µM (inactive) | > 10 µM (inactive) | > 10 µM (inactive) | – | > 10 µM (inactive) | > 10 µM (inactive) | > 10 µM (inactive) | > 10 µM (inactive) | > 10 µM (inactive) | > 10 µM (inactive) | > 10 µM (inactive) | > 10 µM (inactive) | > 10 µM (inactive) | > 10 µM (inactive) | > 10 µM (inactive)
9 | CC(C)NC(=O)OCc1c(COC(=O)NC(C)C)n(C)c2c1ccc1ccsc12 | 2.25 µM (inactive) | 4.76 µM (inactive) | 12.7 µM (inactive) | 8.87 µM (inactive) | 8.97 µM (inactive) | 12.4 µM (inactive) | 4.36 µM (inactive) | 3.24 µM (inactive) | 5.09 µM (inactive) | 3.61 µM (inactive) | 17 µM (inactive) | 2.94 µM (inactive) | – | 10.7 µM (inactive) | 16.2 µM (inactive) | 2.37 µM (inactive) | 22.2 µM (inactive) | 8.45 µM (inactive) | 6.9 µM (inactive) | 5.57 µM (inactive)
10 | c1ccc(C(CCN2CC3CCC(CC3)C2)c2ccccc2)cc1 | – | 38.4 µM (inactive) | 27.5 µM (inactive) | 24 µM (inactive) | 18.4 µM (inactive) | 23 µM (inactive) | 16.3 µM (inactive) | 15 µM (inactive) | 16.6 µM (inactive) | 38.7 µM (inactive) | 20.1 µM (inactive) | 16.8 µM (inactive) | 16 µM (inactive) | 16.5 µM (inactive) | – | 19.7 µM (inactive) | 23.1 µM (inactive) | 18.2 µM (inactive) | 17.1 µM (inactive) | 16.9 µM (inactive)
11 | NS(=O)(=O)c1ccc(/N=N/c2ccc(O)cc2)cc1 | 62.1 µM (inactive) | 49.7 µM (inactive) | 92 µM (inactive) | 61.8 µM (inactive) | 7.46 µM (inactive) | 61.9 µM (inactive) | > 100 µM (inactive) | 31.1 µM (inactive) | 33.7 µM (inactive) | 43.4 µM (inactive) | > 100 µM (inactive) | 26.5 µM (inactive) | 31.9 µM (inactive) | 28.8 µM (inactive) | > 100 µM (inactive) | 7.13 µM (inactive) | > 100 µM (inactive) | 61 µM (inactive) | – | 6.61 µM (inactive)
12 | COC(=O)[C@]12CCC(C)(C)C[C@H]1C1=CC[C@@H]3[C@@]4(C)CC[C@H](OC5OC(CO)C(O)C(O)C5OC5OC(CO)C(O)C(O)C5O)C(C)(C)[C@@H]4CC[C@@]3(C)[C@]1(C)CC2 (some centres not stated) | 15.7 µM (inactive) | 12 µM (inactive) | 12.6 µM (inactive) | 22.5 µM (inactive) | 10.1 µM (inactive) | 5.43 µM (inactive) | 11.9 µM (inactive) | 14.5 µM (inactive) | 3.1 µM (inactive) | 4.43 µM (inactive) | 16.6 µM (inactive) | 19.3 µM (inactive) | – | 15.8 µM (inactive) | 20.5 µM (inactive) | 7.85 µM (inactive) | – | 13.2 µM (inactive) | 10.5 µM (inactive) | 6.15 µM (inactive)
13 | Cc1ccc(/N=N/C(=N/c2ccccc2)c2ccc(N(CCC#N)CCC#N)cc2)cc1 | 35.6 µM (inactive) | 36.6 µM (inactive) | 30.1 µM (inactive) | 37 µM (inactive) | 47.3 µM (inactive) | 31.6 µM (inactive) | – | 20.1 µM (inactive) | 17.4 µM (inactive) | 42.6 µM (inactive) | 54.2 µM (inactive) | 39 µM (inactive) | 28.8 µM (inactive) | 22.9 µM (inactive) | 30.8 µM (inactive) | 27.9 µM (inactive) | 27.2 µM (inactive) | 15.8 µM (inactive) | 21.8 µM (inactive) | –
14 | COc1cc(/C=C2/C[C@H]3[C@@H]4CC=C5C[C@@H](OC(C)=O)CC[C@]5(C)[C@H]4CC[C@]3(C)NC2=O)cc(OC)c1OC | 49.4 µM (inactive) | 20.8 µM (inactive) | 26.6 µM (inactive) | 24.2 µM (inactive) | 45.3 µM (inactive) | 42.7 µM (inactive) | 25.6 µM (inactive) | 32.7 µM (inactive) | 24.6 µM (inactive) | 17.4 µM (inactive) | 27 µM (inactive) | – | 13.1 µM (inactive) | 22.9 µM (inactive) | 25.3 µM (inactive) | 47.6 µM (inactive) | 26.5 µM (inactive) | 19.5 µM (inactive) | 19.8 µM (inactive) | 38.7 µM (inactive)
15 | C=CCC(CCC(C)=O)(C(=O)OCC)C(=O)OCC | > 100 µM (inactive) | > 100 µM (inactive) | > 100 µM (inactive) | > 100 µM (inactive) | > 100 µM (inactive) | > 100 µM (inactive) | > 100 µM (inactive) | > 100 µM (inactive) | > 100 µM (inactive) | > 100 µM (inactive) | > 100 µM (inactive) | > 100 µM (inactive) | > 100 µM (inactive) | > 100 µM (inactive) | > 100 µM (inactive) | > 100 µM (inactive) | > 100 µM (inactive) | > 100 µM (inactive) | > 100 µM (inactive) | –
